Measurements reported in US7297344B1, “Preparations for the promotion of wound healing in the upper respiratory tract and/or ear” (priority 1999, dated 2007).

Test system: Human ciliated epithelium cells
Test: in-vitro ciliary vibration (ciliary activity) test
Type: cell-based
Experimental: The corresponding cells were exposed and incubated with 100 μl test substance at a temperature of 37° C.

In the case of `N=C(NCCCCCCNC(=N)NC(=N)Nc1ccc(Cl)cc1)NC(=N)Nc1ccc(Cl)cc1` [chlorohexidine], the “ciliary activity / ciliary vibration” value is reported as “decrease of the measured ciliary vibration”.
